The subject of this assay is SK-MES-1. Briefly: Inhibition of metaphase to anaphase transition in human SKMes1 cells at 10 nM. Format: functional.

Take `CC(=O)O[C@H]1C(=O)[C@@]2(C)[C@H]([C@H](OC(=O)c3ccccc3)[C@]3(O)C[C@H](OC(=O)[C@H](O)[C@@H](NC(=O)c4ccccc4)c4ccccc4)C(C)=C1C3(C)C)[C@]1(OC(C)=O)CO[C@@H]1C[C@@H]2O` [PACLITAXEL]: the Ratio is 0.026.

Source of the values: ChEMBL document CHEMBL1143075, “Taxanes from Shells and Leaves of Corylus avellana” (2008).
